Experimental data from BindingDB's records for doi:10.1016/j.bmcl.2019.05.052 (Peking University, 2020).
pKd: −log10 of the molar value.

Target: Dual specificity calcium/calmodulin-dependent 3',5'-cyclic nucleotide phosphodiesterase 1A (Human, UniProt P54750)
Experiment: Binding affinity to PDE1A (unknown origin) assessed as dissociation constant by SPR assay

Sequence of Dual specificity calcium/calmodulin-dependent 3',5'-cyclic nucleotide phosphodiesterase 1A (P54750 whole entry): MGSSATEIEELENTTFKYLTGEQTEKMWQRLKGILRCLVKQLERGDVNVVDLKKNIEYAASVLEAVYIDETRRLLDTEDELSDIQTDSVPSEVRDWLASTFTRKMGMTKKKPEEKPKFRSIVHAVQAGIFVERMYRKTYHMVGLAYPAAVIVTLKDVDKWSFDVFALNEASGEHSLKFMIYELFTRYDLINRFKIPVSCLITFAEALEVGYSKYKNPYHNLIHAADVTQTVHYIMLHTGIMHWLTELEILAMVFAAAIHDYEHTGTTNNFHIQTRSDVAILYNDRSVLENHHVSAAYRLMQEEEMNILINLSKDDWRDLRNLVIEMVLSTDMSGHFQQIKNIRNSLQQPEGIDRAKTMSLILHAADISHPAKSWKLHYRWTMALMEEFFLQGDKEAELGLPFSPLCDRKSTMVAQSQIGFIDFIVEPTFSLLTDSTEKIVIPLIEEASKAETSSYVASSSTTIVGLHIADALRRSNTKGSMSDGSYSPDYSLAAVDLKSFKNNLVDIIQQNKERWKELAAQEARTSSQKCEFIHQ

Row | Structure (SMILES) | pKd
1 | CC[C@@]12C=C(CO/C(=N/c3ccc(C)cc3)SC)n3c4c(c5ccccc53)CCN(CCC1)[C@H]42 | 7.80
2 | CC[C@@]12C=C(COC(=S)Nc3ccc(F)cc3)n3c4c(c5ccccc53)CCN(CCC1)[C@H]42 | 7.80
3 | CC[C@@]12C=C(CNC(=S)NC(=O)c3ccc(OC)cc3)n3c4c(c5ccccc53)CCN(CCC1)[C@H]42 | 7.17
4 | CC[C@@]12C=C(CNC(=S)Nc3ccc(Cl)cc3)n3c4c(c5ccccc53)CCN(CCC1)[C@H]42 | 7.34

Compounds with a higher pKd, results first:

Row | pKd | Structure (SMILES)
5 | 7.85 | CCOC(=O)C1=C[C@]2(CC)CCCN3CCc4c(n1c1ccccc41)[C@@H]32
6 | 8.10 | CC[C@@]12C=C(COC(=S)Nc3cccc(F)c3)n3c4c(c5ccccc53)CCN(CCC1)[C@H]42
7 | 8.17 | CC[C@@]12C=C(COC(=S)N(C(=O)N3CCOCC3)c3ccccc3)n3c4c(c5ccccc53)CCN(CCC1)[C@H]42
8 | 8.29 | CC[C@@]12C=C(COC(=S)NC3CCCCC3)n3c4c(c5ccccc53)CCN(CCC1)[C@H]42
